Some test systems named below: 786-0 renal; A549 NSCLC; ACHN renal; HCC-2998 colon; HCT-116 colon; HT29 colon; NCI-H226 lung; NCI-H460 lung; SF-539 CNS; SK-OV-3 ovarian; SNB-19 CNS; SR leukemia; UACC-62 melanoma; UO-31 renal; DU-145 prostate; HOP-62 NSCLC; HS 578T breast; M14 melanoma; NCI/ADR-RES ovarian.
Experiment in all cases: NCI anticancer screen, dose series, 48 h

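All cell lines were grown in 96-well plates and treated with compound for 48 hours. TGI denotes the concentration required for complete inhibition of growth.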 A value given as a limit tells only on which side of the number the result lay.

For the compound `O=C1NCC2=C1CCC1c3ccccc3CCN21` (stereo not given), the TGI with 786-0 renal, in the assay with A549 NSCLC, with ACHN renal, in the assay on HCC-2998 colon, in the assay with HCT-116 colon and in the assay with HT29 colon was more than 100 µM in each case. For the same compound, the TGI in the assay with NCI-H226 lung, in the assay with NCI-H460 lung, in the assay on SF-539 CNS, in the assay with SK-OV-3 ovarian, in the assay on SNB-19 CNS and in the assay on SR leukemia was more than 100 µM throughout. In addition, the TGI in the assay on UACC-62 melanoma and in the assay with UO-31 renal was more than 100 µM throughout.

As for `Brc1ccc(C2(N3CCCCC3)CCCCC2)s1`, the TGI in the assay on 786-0 renal was more than 100 µM; with A549 NSCLC, more than 100 µM; with ACHN renal it was more than 100 µM; with DU-145 prostate it was more than 100 µM; with HCC-2998 colon it was 35.3 µM; in the assay on HCT-116 colon, more than 100 µM. The TGI in the assay with HOP-62 NSCLC was more than 100 µM; with HS 578T breast, more than 100 µM; in the assay with HT29 colon, more than 100 µM; in the assay with M14 melanoma it was 71.4 µM; in the assay on NCI-H460 lung it was 84.8 µM; in the assay with SK-OV-3 ovarian, more than 100 µM. Moreover, the TGI in the assay with SNB-19 CNS is more than 100 µM; in the assay with SR leukemia, 44.3 µM; with UACC-62 melanoma, more than 100 µM; with UO-31 renal, more than 100 µM.

Turning to `CCCNc1c(Cl)cc(Cl)c2[nH]c3ccccc3c(=O)c12`, the TGI in the assay with 786-0 renal, in the assay with A549 NSCLC, with ACHN renal, with HCC-2998 colon, with HCT-116 colon and in the assay on HOP-62 NSCLC was more than 100 µM in each case. For the same compound, the TGI in the assay on HT29 colon, in the assay on M14 melanoma, with NCI-H226 lung, in the assay with NCI/ADR-RES ovarian, with SF-539 CNS and in the assay on SK-OV-3 ovarian was more than 100 µM each time. The TGI is 65.7 µM in the assay with SNB-19 CNS, more than 100 µM with SR leukemia, more than 100 µM in the assay with UACC-62 melanoma and more than 100 µM with UO-31 renal.

On to `CN(N=O)C(N)=NC(=O)c1ccccc1`, for which the TGI in the assay with 786-0 renal, in the assay on A549 NSCLC, with ACHN renal, in the assay on HCT-116 colon, with HOP-62 NSCLC and in the assay on HS 578T breast was more than 100 µM each time. Also, the TGI was more than 100 µM with HT29 colon; more than 100 µM in the assay on M14 melanoma; more than 100 µM in the assay with NCI-H226 lung; 40.6 µM with NCI-H460 lung; more than 100 µM in the assay on NCI/ADR-RES ovarian; more than 100 µM in the assay with SF-539 CNS. For the same compound, the TGI with SK-OV-3 ovarian, with SNB-19 CNS, in the assay with SR leukemia, in the assay on UACC-62 melanoma and in the assay on UO-31 renal was more than 100 µM each time.

Consider `Cc1[nH]c2ncn(N)c(=N)c2c1Cc1ccccc1`, for which the TGI with 786-0 renal, in the assay with A549 NSCLC, in the assay on ACHN renal, with HCC-2998 colon, in the assay on HCT-116 colon and in the assay on HOP-62 NSCLC was more than 100 µM throughout. The TGI with HT29 colon, with M14 melanoma, with NCI-H226 lung, in the assay on NCI/ADR-RES ovarian, in the assay with SF-539 CNS and with SK-OV-3 ovarian was more than 100 µM in each case. Besides, the TGI in the assay on SNB-19 CNS, in the assay on SR leukemia, in the assay with UACC-62 melanoma and with UO-31 renal was more than 100 µM throughout.

Consider `C=C1C(=O)OC2C3C(=C)[C@@H](OC(C)=O)CC3C(C)=CC(OC(=O)C(C)(O)C(C)OC(C)=O)[C@@H]12` (stereo not given in full), for which the TGI amounted to 24.2 µM in the assay with 786-0 renal; 77.8 µM with A549 NSCLC; 24.8 µM in the assay with ACHN renal; 30.3 µM in the assay on DU-145 prostate; 29.7 µM with HCC-2998 colon; 17.9 µM with HCT-116 colon. The TGI with HOP-62 NSCLC amounted to 46.6 µM; in the assay on HS 578T breast it was 40.9 µM; with HT29 colon, 19.4 µM; in the assay on M14 melanoma it was 19.7 µM; in the assay on NCI-H226 lung, 48.4 µM; in the assay on NCI-H460 lung, 44 µM. Further, the TGI was 31.9 µM with SF-539 CNS; more than 100 µM in the assay with SK-OV-3 ovarian; more than 100 µM in the assay with SNB-19 CNS; 68.9 µM with SR leukemia; 25.8 µM in the assay with UACC-62 melanoma; 24.9 µM in the assay with UO-31 renal.

In the case of `CC1(C)CC(C2CC(C)(C)CC(C)(C)[C@H]2O)[C@@H](O)C(C)(C)C1` (stereo not given in full), the TGI in the assay with 786-0 renal, with A549 NSCLC, with ACHN renal, with HCC-2998 colon, in the assay on HCT-116 colon and in the assay with HT29 colon was more than 100 µM in each case. The TGI in the assay with M14 melanoma, in the assay on NCI-H226 lung, with NCI-H460 lung, in the assay with SF-539 CNS, in the assay with SK-OV-3 ovarian and with SNB-19 CNS was more than 100 µM each time. Further, the TGI in the assay on SR leukemia, with UACC-62 melanoma and in the assay on UO-31 renal was more than 100 µM in each case.

Consider `COc1ccc(/C=N/Nc2nc3ccccc3c(=O)n2-c2ccccc2)cc1`, for which the TGI with 786-0 renal, with A549 NSCLC, with ACHN renal, in the assay on DU-145 prostate, with HCC-2998 colon and with HCT-116 colon was more than 100 µM each time. For the same compound, the TGI in the assay with HOP-62 NSCLC, in the assay on HT29 colon, in the assay on M14 melanoma, with NCI-H226 lung, with NCI-H460 lung and with NCI/ADR-RES ovarian was more than 100 µM in each case. Also, the TGI in the assay with SF-539 CNS was more than 100 µM; in the assay with SK-OV-3 ovarian it was more than 100 µM; in the assay on SNB-19 CNS it was more than 100 µM; in the assay with SR leukemia, more than 100 µM; with UACC-62 melanoma, more than 100 µM; in the assay with UO-31 renal it was 14.9 µM.

Take `Cc1c(O)c(OC2OC(CO)C(O)C(O)C2O)cc2c1CC[C@@H]1C2(C)C(=O)C[C@]2(C)[C@@H]([C@@](C)(O)C(O)CCC(C)(C)O)[C@H](O)C[C@@]12C` (stereo not given in full): the TGI with 786-0 renal, in the assay on A549 NSCLC, with ACHN renal, in the assay on DU-145 prostate, in the assay with HCC-2998 colon and with HCT-116 colon was more than 100 µM each time. Also, the TGI in the assay with HOP-62 NSCLC, with HT29 colon, in the assay on M14 melanoma, in the assay on NCI-H226 lung, in the assay on NCI-H460 lung and in the assay with NCI/ADR-RES ovarian was more than 100 µM in each case. Moreover, the TGI in the assay on SF-539 CNS, in the assay with SK-OV-3 ovarian, in the assay with SNB-19 CNS, with SR leukemia, with UACC-62 melanoma and in the assay with UO-31 renal was more than 100 µM in each case.

Turning to `CCCN=C1S/C(=C/c2ccc(OC)c(OC)c2)C(=O)N1c1ccccc1`, the TGI in the assay on 786-0 renal is 50.2 µM; in the assay on A549 NSCLC it was more than 100 µM; in the assay on ACHN renal it was more than 100 µM; in the assay with HCC-2998 colon it was more than 100 µM; in the assay with HCT-116 colon, more than 100 µM; with HOP-62 NSCLC it was 15.2 µM. For the same compound, the TGI with HS 578T breast is more than 100 µM; with HT29 colon it was more than 100 µM; in the assay with M14 melanoma, more than 100 µM; in the assay with NCI-H226 lung, 95 µM; in the assay on NCI-H460 lung, more than 100 µM; with NCI/ADR-RES ovarian, more than 100 µM. Besides, the TGI is 30.2 µM with SF-539 CNS; 37.8 µM in the assay on SK-OV-3 ovarian; 63.4 µM in the assay on SNB-19 CNS; more than 100 µM in the assay with SR leukemia; more than 100 µM in the assay on UACC-62 melanoma; 98.6 µM in the assay on UO-31 renal.

For `O=C(CC(C(=O)c1ccsc1)c1cccs1)c1ccsc1` (stereo not given), the TGI with 786-0 renal, with A549 NSCLC, in the assay on ACHN renal, with DU-145 prostate, in the assay on HCC-2998 colon and in the assay on HOP-62 NSCLC was more than 100 µM in each case. The TGI in the assay with HT29 colon, in the assay on M14 melanoma, in the assay with NCI-H226 lung, in the assay with NCI-H460 lung, in the assay on NCI/ADR-RES ovarian and with SK-OV-3 ovarian was more than 100 µM each time. For the same compound, the TGI with SNB-19 CNS, in the assay with SR leukemia, in the assay with UACC-62 melanoma and with UO-31 renal was more than 100 µM throughout.

Take `O=C(O)C1CCCCN1CCc1c[nH]c2ccccc12` (stereo not given): the TGI in the assay on 786-0 renal, in the assay with A549 NSCLC, in the assay on ACHN renal, in the assay with DU-145 prostate, in the assay with HCC-2998 colon and in the assay with HCT-116 colon was more than 100 µM each time. Moreover, the TGI with HOP-62 NSCLC, with HT29 colon, with M14 melanoma, with NCI-H226 lung, with NCI-H460 lung and with NCI/ADR-RES ovarian was more than 100 µM each time. In addition, the TGI with SF-539 CNS, with SK-OV-3 ovarian, in the assay on SNB-19 CNS and in the assay with UACC-62 melanoma was more than 100 µM each time.

Regarding `[N-]=[N+]=NC1=C(N=[N+]=[N-])c2cccc3cccc(c23)C1=O`, the TGI in the assay on 786-0 renal, with A549 NSCLC, in the assay on ACHN renal, in the assay on HCC-2998 colon, in the assay with HCT-116 colon and in the assay on HOP-62 NSCLC was more than 100 µM each time. Moreover, the TGI in the assay on HS 578T breast, with HT29 colon, in the assay on M14 melanoma, in the assay on NCI-H226 lung, in the assay with NCI-H460 lung and in the assay with NCI/ADR-RES ovarian was more than 100 µM throughout. The TGI with SF-539 CNS, in the assay with SK-OV-3 ovarian, with SNB-19 CNS, with SR leukemia, in the assay on UACC-62 melanoma and in the assay on UO-31 renal was more than 100 µM each time.

For the compound `CC(=O)/C(=C\n1c(=S)[nH]c2ccc([N+](=O)[O-])cc21)C(=O)Nc1ccccc1C`, the TGI in the assay with 786-0 renal, in the assay with A549 NSCLC, in the assay on ACHN renal, in the assay with DU-145 prostate, in the assay with HCC-2998 colon and with HCT-116 colon was more than 100 µM each time. In addition, the TGI with HOP-62 NSCLC, with HT29 colon, in the assay with M14 melanoma, with NCI-H226 lung, in the assay with NCI-H460 lung and with NCI/ADR-RES ovarian was more than 100 µM in each case. In addition, the TGI in the assay on SF-539 CNS, in the assay on SK-OV-3 ovarian, in the assay with SR leukemia and with UACC-62 melanoma was more than 100 µM throughout.

In the case of `COc1ccc2c(c1)OCC1Cc3cccc(OC)c3OC21` (stereo not given), the TGI with 786-0 renal, in the assay on A549 NSCLC, with DU-145 prostate, in the assay on HCC-2998 colon, with HCT-116 colon and with HOP-62 NSCLC was more than 100 µM throughout. Moreover, the TGI in the assay with HT29 colon, in the assay with M14 melanoma, in the assay on NCI-H226 lung, with NCI/ADR-RES ovarian, in the assay with SF-539 CNS and with SK-OV-3 ovarian was more than 100 µM each time. The TGI in the assay on SR leukemia, in the assay on UACC-62 melanoma and in the assay on UO-31 renal was more than 100 µM each time.

With `O=[N+]([O-])c1ccc2nc(/C=C(\O)c3ccccc3)c(/C=C(\O)c3ccc(Cl)cc3)nc2c1`, the TGI in the assay with 786-0 renal, in the assay on A549 NSCLC, in the assay with ACHN renal, in the assay with DU-145 prostate, with HCC-2998 colon and in the assay on HCT-116 colon was more than 100 µM in each case. For the same compound, the TGI in the assay on HOP-62 NSCLC is 88.2 µM; in the assay with HT29 colon, more than 100 µM; with M14 melanoma, more than 100 µM; in the assay with NCI-H226 lung it was more than 100 µM; with NCI-H460 lung it was more than 100 µM; with NCI/ADR-RES ovarian it was more than 100 µM. The TGI in the assay with SF-539 CNS, in the assay on SK-OV-3 ovarian, in the assay on SNB-19 CNS, in the assay with SR leukemia, in the assay with UACC-62 melanoma and in the assay on UO-31 renal was more than 100 µM each time.
